What all share (format): cell-based, human
In series [1] the test system is aldehyde dehydrogenase (ALDH). The series is described as follows: Aldefluor assay with flow cytometry. To be noted: OVCAR4 cells, adherent and suspended, 7 days; negative control. The text has this:
The panels of FIG. 9A and FIG. 9B are as follows. Panel A: CBX2-associated genes were cross-referenced with a gene set for stemness. Percentage indicates overlap of stemness gene set with CBX2-associated genes. Panel B: OVCAR4 cells grown in adherent and suspended settings for 7 days. Aldefluor assay and flow cytometry were utilized to determine the percentage of cells that were positive for aldehyde dehydrogenase (ALDH), a marker of stemness. […] Panel C: As above, OVCAR4 cells grown in adherent and suspended settings for 7 days. Bar graph compares the percentage of cells ALDH positive control (+DEAB) to cells without DEAB (experimental) in adherent and suspended settings. Statistical test=two-sided t-test. F Test p=0.1136. Panel D: OVCAR4 cells with shControl, shCBX2 #1 and #2 cultured in suspension over 7 days. Aldefluor assay and flow cytometry again utilized to determine the percentage of cells ALDH positive. Statistical test=two-sided t-test. F-test p=0.83 Panel E: Utilizing the TCGA (HGSOC, Nature, 2011, n=489) dataset, a scatter plot CBX2 expression was correlated to ALDH3A1 expression. Spearman correlation r=0.2123 and p-value<0.0001. Panel F: RT-qPCR of ALDH3A1 in OVCAR4 cells cultured in adherent and suspension conditions with CBX2 knockdown (shCBX2 #1). Statistical test =ANOVA. […]

For series [2], the system named is TMEFF1 expression in OVCAR4 cells. The series is described as follows: TMEFF1 (CBX2 target gene) expression by qPCR. To be noted: qPCR after treatment of OVCAR4 cells. As to the method: Ten candidate inhibitors were evaluated based on their ability to inhibit HGSOC cell viability. Dose response assays of all 10 inhibitors were conducted in OVCAR4, PEO1, and COV504 HGSOC cell lines to determine half inhibitory concentration (IC50) (FIG. 12 Panel A). We explored ability of these compounds to downregulate a CBX2 target gene, transmembrane protein with EGF-like and two follistatine-like domains 1 (TMEFF1) (FIG. 12 Panel B).
RNA was isolated using RNAeasy Plus Mini Kit (Qiagen, Hilden Germany) according to the manufacturer's protocol. NanoDrop spectrophotometry was used to measure concentration of extracted RNA. Luna Universal One-step RT qPCR kit (New England BioLabs, Ipswich, MA) was used on BioRad CFX96 (Bio-Rad, Hercules, CA). HPRT or GAPDH were used as internal control as stated in figure legend.
(In qPCR the cycle at which signal appears reflects the starting amount.)

For the next series, the system named is CBX2. Put plainly: CBX2 knockdown confirmed via qPCR and immunoblots. Particulars: shRNA transduced into OVCAR4, PEO1 and OVCAR8 cells; vs shControl. The text has this:
To further elucidate the role of CBX2 in HGSOC, we evaluated the impact of CBX2 modulation in PEO1, OVCAR4, and OVCAR8 HGSOC cell lines. One of the two independent small hairpin RNAs (shRNA) specific for CBX2 or a control (shControl) were transduced into OVCAR4, PEO1, and OVCAR8 cells. CBX2 knockdown was confirmed via quantitative PCR (qPCR) and immunoblots, with approximately 60% knockdown in the presence of shCBX2 #1 and 30% knockdown in the presence of shCBX2 #2 (FIG. 2A Panels C, D; and FIG. 3A Panels B-D). […] OVCAR4 and PEO1 CBX2 knockdown cells were plated in adherent (2D) conditions and for 96 h gLuc activity was measured every 24 h. […] OVCAR4 and PEO1 CBX2 knockdown cells were plated in forced suspension conditions and gLuc activity was monitored every 24 h for 96 h and cell viability was determined for cells grown in forced suspension. […] Spheroid diameter was measured for at least 50 spheroids in each condition and used as a surrogate for cell number. […]
Cell lysis was performed using radioimmunoprecipitation assay (RIPA) buffer (150 mM sodium chloride, Triton X-100, 0.5% sodium deoxycholate, 0.1% SDS [sodium dodecyl sulfate], 50 mM Tris, pH 8.0) supplemented with complete EDTA-free protease inhibitor cocktail (Roche), as well as NaF and NaV. Protein was quantified using bicinchoninic acid (BCA) protein assay (Thermo Fisher Scientific, Waltham, MA) and spectrophotometry. […]

Turning to `CCN(CC)c1ccc(C=O)cc1` [DEAB, Diethylaminobenzaldehyde], in series [1], the ALDH activity result is listed as “prevented the increase”.

As to `CC(=O)Nc1ccc(OC[C@](C)(O)C(=O)Nc2ccc([N+](=O)[O-])c(C(F)(F)F)c2)cc1` [GTX-007], in series [2], the TMEFF1 expression result is given as “significantly inhibited”.

Regarding `CCc1c(C(=O)C(N)=O)c2c(OCC(=O)O)cccc2n1Cc1ccccc1` [LY315920], in series [2], the TMEFF1 expression entry is on record as “significantly inhibited”. On the same count and under the same terms, for `Cc1nc2ccc(CN(C)c3ccc(C(=O)N[C@@H](CCC(=O)O)C(=O)O)s3)cc2c(=O)[nH]1` [raltitrexed] the value was “significantly inhibited”. Turning to “shCBX2 #1: CBX2-specific short hairpin RNA, GCCAAGGAAGCTCACTGCCAT (SEQ ID NO:19) (expressed or natural sequence; listed as Homo sapiens)”, the CBX2 knockdown result with CBX2 is given as “approximately 60%”. On the same count and under the same terms, for “shCBX2 #2: CBX2-specific short hairpin RNA, ACGGAAAGGAACAGGAAGCAT (SEQ ID NO:20) (expressed or natural sequence; listed as Homo sapiens)” the value was roughly 30%.

The values are drawn from patent publication US20250199004A1, “METHODS OF EVALUATING TREATMENT OUTCOME IN HIGH GRADE SEROUS OVARIAN CANCER” (THE REGENTS OF THE UNIVERSITY OF COLORADO, A BODY CORPORATE, priority 2018, published 2025).
